Reference: EP0115142B1, “Chroman compounds” (priority 1982, dated 1984)
Where a name gives a salt, the structure may show the parent alone. Marks after values point to notes of the source that are not given here.

Columns and labels:
[1] = tested on: locus coeruleus; assay: Locus coeruleus test (single unit firing, clonidine reversal); type: in vivo, Male Sprague-Dawley rats; details: anesthetized rats; for clonidine required to re-suppress firing: after firing was reinstated by the test agent, i.v.; for dose that reinstated firing: i.v. infusion after clonidine 10 micrograms/kg i.v. suppressed firing
Experimental: Locus Coeruleus Test: The locus coeruleus test for alpha2-antagonist activity is predictive of anti- depressant activity as described by G. Engberg et al. in Communications in Psychopharmacology, Vol. 4, pages 233-239 (1980). The alphas-antagonistic properties of a test agent are determined as follows: Male Sprague-Dawley rats (280-320 g) are anesthetized with sodium pentobarbitol (60 mg/kg of body weight, i.p.) and placed in a stereotaxic instrument to allow precise location of the electrode in the locus coeruleus. Extracellular single unit activity is recorded from the locus coeruleus using stainless steel or tungsten microelectrodes (2-5 megohm impedance). Extracellular potentials are counted during successive 10 second intervals and recorded on a digital counter. The baseline firing rate of each neuron is determined for 3 to 5 minutes before drug administration. Drugs are injected intravenously in a volume of 0.1 ml; data are collected for 2 to 3 minutes between multiple drug injections. The ability of a test agent to reverse the suppressant effects of clonidine, and the total cumulative dose of clonidine required to override the test agent, are indicative of alpha2-antagonistic properties. In this test, 10 micrograms/kg of body weight of clonidine were administered by infusion intravenously to suppress firing.

[2] = tested on: Male Sprague-Dawley (HLA) rats; assay: Clonidine hypoactivity (CH) test; type: in vivo
Experimental: The suppression can be prevented by administration of an alpha2-antagonist as described by J. Malick et al. in Federation Proceedings, Vol. 40, page 244 (1981), a publication of the Federation of the American Societies of Experimental Biology. Male Sprague-Dawley (HLA) rats, weighing 140 to 180 g, were used throughout these studies. Spontaneous locomotor activity was measured in Animex activity monitors supplied by Columbus Instruments, Columbus, Ohio; groups of three animals were placed in a chamber of clear "Plexiglas", 26.5 x 26.5 x 15 cm for the test. ("Plexiglas" is a trademark of Rohm & Haas Co., Philadelphia, Pennsylvania, USA, for thermoplastic polymethyl methacrylate type polymers and plastic sheets). All animals received two injections prior to testing according to the following paradigm: vehiclec (HPMC) or antagonist was administered subcutaneously 30 minutes prior to intraperitoneal administration of either HPMC or clonidine. […] Animals were placed into the motor activity chambers as soon as possible after the second injection and total activity counts were recorded for 20 minutes. Five groups of 3 rats each were used for each dose of drug or control.

[3] = tested on: DBA-2 mice; assay: Audiogenic seizure (AS): reversal of clonidine protection; type: in vivo; details: for Minimal effective doses (MED) AS (i.p.): one hour before clonidine 0.4 mg/kg i.p., sound 30 minutes later, mice
Description: Audiogenic Seizure (AS): Sound-produced seizures in mice are blocked by clonidine, an alpha2- agonist, and such a model may be used to measure the activity of a particular compound as an alpha2- antagonist, specifically as it decreases clonidine activity. The activity of clonidine in this regard and its relationship to alpha2-receptors is described by R. Horton et al. in the Journal of Pharmacology and Experimental Therapeutics, Vol. 214, No. 2, pages 437-442 (1980). DBA-2 mice (20-22 days of age; 8 to 12 g) are used in these studies. Mice are tested individually in a glass bell jar (112 inches high and 12 inches in diameter) which is placed in a sound-attenuated chamber. An electric bell is used to generate a noise level of 116-118 decibels. Mice are allowed to acclimate to the chamber for 30 seconds and are then exposed to the sound for 60 seconds. The auditory stimulation causes a convulsive episode characterized by wild running, clonus, tonus and death. […] Thus, the test compound is dissolved in a hydroxypropylmethylcellulose (HPMC) vehicle consisting of 0.1% Tween° 80 and 0.5% hydroxypropylmethylcellulose in an 0.9% by weight sodium chloride aqueous solution and injected intraperitoneally (i.p.) into the mouse. (Tween^O is a registered trademark of ICI Americas Inc., Wilmington, Delaware, USA, for emulsifiers, wetting and dispersing agents. Tween@ is polyoxyethylene sorbitan mono-oleate). After one hour, the mouse is challenged with clonidine intraperitoneally at 0.4 mg/kg of body weight. After a further 30 minutes, the mouse is subjected to a tone from a high intensity bell and the mouse is observed for seizure activity. The activity is scored on the basis of whether clonic and/or tonic seizures occur.

[4] = tested on: mouse; assay: Mouse learned helplessness swimming test (MLHS); type: in vivo; details: one hour before test, time in tonic immobility
Experimental: During testing, a mouse is gently placed in the water and tested for a total of 6 minutes as follows: during the first 2 minutes the animal quickly "learns" there is no escape and spends the vast majority of the last 4 minutes floating (tonic immobility). Nothing is recorded during the first 2 minutes (learning period) but the time in seconds spent in tonic immobility during the last 4 minutes of the session is recorded. […] Control (vehicle-treated) groups are run each day and drug-treated groups are compared to these via a Student's t-test.

[5] = biological target: T1, alpha2 binding site in human platelets (Homo sapiens, UniProt P08913); assay: Tritiated yohimbine binding assay
T1 construct: from tissue; host or cells: human platelets (washed and disrupted membrane preparation)
T1 sequence (P08913 1-465): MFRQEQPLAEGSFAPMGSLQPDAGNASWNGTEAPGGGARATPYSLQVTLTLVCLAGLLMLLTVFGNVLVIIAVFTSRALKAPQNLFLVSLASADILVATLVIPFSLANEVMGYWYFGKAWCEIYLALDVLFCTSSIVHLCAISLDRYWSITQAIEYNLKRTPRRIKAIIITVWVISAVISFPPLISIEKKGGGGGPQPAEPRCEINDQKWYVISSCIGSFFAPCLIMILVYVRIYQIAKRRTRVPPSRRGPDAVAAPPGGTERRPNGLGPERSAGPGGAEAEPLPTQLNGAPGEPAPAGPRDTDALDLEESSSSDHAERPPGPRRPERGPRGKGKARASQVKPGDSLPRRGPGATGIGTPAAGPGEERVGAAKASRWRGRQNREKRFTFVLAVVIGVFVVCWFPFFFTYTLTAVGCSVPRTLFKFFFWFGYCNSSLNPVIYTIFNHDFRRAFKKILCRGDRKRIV
Experimental: The test is conducted as described by M. Daiguji et al. in Life Sciences, Vol. 28, pages 2705-2717 (1981). Platelets are washed and disrupted as described in the Daiguji article. The amount of platelet used per assay varies between 0.2 to 1.5 mg of protein. […] For the determination of non-specific binding, 20 microliters of 10 millimolar norepinephrine is used. The incubation is conducted at 25°C for 60 minutes, after which the membranes are filtered under vacuum on a GF/B filter. The filters are then counted in a scintillation counter. […] It is known that if an alpha2-agonist or alpha2-antagonist binds to alpha2 sites, such will be displaced more easily by a compound which is also of the same type, i.e., an agonist or antagonist, respectively.

Structure (SMILES) | clonidine required to re-suppress firing [1] | dose that reinstated firing [1] | Minimal effective doses (MED) CH (s.c.) ([2]; rat, in vivo) | Minimal effective doses (MED) AS (i.p.) [3] | Minimal effective doses (MED) MLHS (i.p.) [4] | IC50 [5] | lowest dose that consistently produced a statistically significant reduction in motor activity ([2]; i.p., rats, pilot studies) | mice protected from audiogenic seizures ([3]; 0.4 mg/kg of body weight, i.p., 30 minutes prior to auditory stimulation) | Minimal effective doses (MED) CH (s.c.) ([2]; s.c., 30 minutes before clonidine 0.01 mg/kg i.p., rats, activity counts for 20 minutes)
COC(=O)[C@@H]1[C@H]2C[C@H]3c4[nH]c5ccccc5c4CCN3C[C@@H]2CC[C@@H]1O [yohimbine, reference compound] | 160 micrograms/kg of body weight | 2.0 mg/kg of body weight | – | – | – | – | – | – | –
c1ccc2c(c1)CCC(C1=NCCN1)O2 (centres unmarked) [Example 1c, 2-(2-Imidazolin-2-yl)chroman] | 1280 micrograms/kg of body weight | reinstated firing at the same level | 0.3 mg/kg of body weight | 5 mg/kg of body weight | 10 mg/kg of body weight | 34 nM | – | – | –
Fc1cccc2c1CCC(C1=NCCN1)O2 (centres unmarked) [Example 2e, 2-(2-Imidazolin-2-yl)-5-fluorochroman] | – | reinstated firing at the same level | 0.5 mg/kg of body weight | 1 mg/kg of body weight | 30 mg/kg of body weight | 3.8 nM | – | – | –
Fc1cccc2c1OC(C1=NCCN1)CC2 (centres unmarked) [Example 3e, 2-(2-Imidazolin-2-yl)-8-fluorochroman] | – | – | – | ~3* mg/kg of body weight | 30 mg/kg of body weight | 53.5 nM | – | – | –
Clc1cccc(Cl)c1N=C1NCCN1 [Clonidine, reference compound] | – | – | – | – | – | – | 0.01 mg/kg of body weight | 100% | –
c1ccc2c(c1)OCC(C1=NCCN1)O2 (centres unmarked) [RX 781094, 2-[2-(1,4-benzodioxanyl)]-22imidazoline hydrochloride, reference compound] | – | – | – | 2.5 mg/kg of body weight | – | – | – | – | 0.03 mg/kg of body weight
